Where two headings read alike, the source gives them in different places.
Columns and labels:
P. falciparum [1] = conditions: Ancelin and Vial, 1986; read-out: IC50, lethal to P. falciparum in vitro; cited from earlier work
S. cerevisiae = assay: Liquid growth inhibition assay of S. cerevisiae (OD600); assay type: cell-based, Saccharomyces cerevisiae; conditions: for Inhibition of S. cerevisiae growth (in words): structure-activity comparison, Examples 2-4
Protocol: Strains and Growth Conditions: Wild-type (BY4741: Mata his3Δ1 leu2Δ0 met15Δ0 ura3Δ0) and mutant (hnm1Δ, psd1Δ, cki1Δ, pem1Δ, ept1Δ, cpt1Δ, eki1Δ, psd2Δ, pct1Δ, ect1Δ, pem2Δ) S. cerevisiae strains used in this study were purchased from Research Genetics (Invitrogen, USA). These strains were grown on YPD (1% yeast extract, 2% dextrose and 2% peptone) or synthetic complete medium (SD, 1.7% yeast nitrogen base, 5% ammonium sulfate and 2% dextrose). The Nigerian strain of P. falciparum was propagated in human red blood cells at 4% hematocrit by the method of Trager and Jensen (1976). Plate growth assays were performed by growing wild-type and mutant yeast strains in YPD to mid-log phase. Cultures were serially diluted 1:10 starting with a density of 3×10^7 cells/ml. The growth of cells was monitored by spotting 3 μl of each dilution onto solid medium in the absence or presence of 5 μM of G25.
Twenty-one analogs including first, second and third generation (E2a, E6, E9, E13, E24, F4, G2, G4, G5, G14, GI5, G25, H5, L1, L4, M34, M53, MS1, T3 and T4) compounds (provided by Dr. Henri Vial, City, Country) were tested (FIG. 4). The choice of the compounds was such that they represent all possible structural features introduced during the optimization process for enhancing antimalarial activity as determined using the combinatorial chemistry techniques.
The antimalarial drug G25 inhibits the growth of Saccharomyces cerevisiae. […] Growth inhibition was assessed by measuring the OD600 and comparing it to that of the wild-type strain grown under the same conditions in the absence of the compound. […] This IC50 value is in the range of the predicted intracellular concentration of G25 in P. falciparum due to the accumulative properties inside the infected erythrocytes.

[2] = tested on: promastigote form of L. major; assay: Growth inhibition of Leishmania major promastigotes; assay type: cell-based; conditions: read-out: IC50 of choline analogs in Leishmania major, WT
Protocol: For those drugs, IC50 values were determined.

C. albicans strain BWP17 = assay: Growth inhibition of C. albicans in vitro; assay type: cell-based, Candida albicans; conditions: read-out: IC50, C. albicans proliferation
Protocol: G15, E24 and C35 inhibited at higher concentrations (>10 μM).

P. falciparum [3] = assay: P. falciparum growth in vitro (antimalarial activity); assay type: cell-based, Plasmodium falciparum; conditions: predicted by QSAR and confirmed experimentally; read-out: IC50, in vitro anti-malarial activity
[4] = tested on: P. falciparum-infected erythrocytes; conditions: after 3 h incubation; cited from earlier work
[5] = tested on: choline transport in the wild-type strain of S. cerevisiae; assay: [methyl-3H]-choline uptake in wild-type S. cerevisiae; assay type: cell-based, Saccharomyces cerevisiae; conditions: 20-fold excess over [methyl-3H]-choline
Protocol: (§1) Uptake Assays: Yeast strains were grown in synthetic complete medium supplemented as required to maintain cell growth to an optical density of 0.55-0.65 at 600 nm. Cells were harvested by centrifugation at 3,200×g for 10 min at 4° C., washed twice in cold PBS and resuspended in nitrogen-free medium (SD without ammonium sulfate). […] After 3 min incubation at 30° C. with shaking, transport was immediately stopped by filtration through Whatman GF/C glass microfiber paper. The filters were washed three times with 5 ml ice-cold PBS, air dried, and analyzed in a scintillation counter. For time course uptake, 3-4×10^7 cells were incubated at 30° C. in 1 ml of nitrogen-free medium in the presence of 25 nM [^3H]-T16 (69 Ci/mmol) for different time periods (1, 2, 3, 4, 5, 7, 10 and 15 min) after which 5 ml of cold PBS was added to stop the reaction. Kinetic parameters were determined after 4 min of incubation at 30° C. in the presence of [^3H]-T16 at concentrations ranging from 25 nM to 75 μM (69 Ci - 23 mCi/mol). The samples were centrifuged at 4° C. for 10 min at 1,200×g, the supernatants were discarded and the cells were then resuspended in 5 ml of cold PBS. The reaction was terminated by filtering the cell suspension through GF/C membranes that were pretreated with 15 ml of 0.05% polyethyleneimine (PEI). The filters were washed twice with 5 ml of cold PBS, air dried, and analyzed in a scintillation counter. The cellular accumulation ratio (CAR) was calculated as previously described for T16 and G25 (Biagini, et al., 2003; Wengelnik, et al., 2002).

[6] = tested on: hnm1Δ S. cerevisiae strain lacking the choline transporter gene HNM1; assay: [3H]-T16 transport in hnm1 deletion strain; assay type: cell-based, Saccharomyces cerevisiae; conditions: 4 min, 30° C.
Protocol: as §1, with “The samples were centrifuged at 4° C. for 10 min at 1,200×g, the supernatants were discarded and the cells were then resuspended in 5 ml of cold PBS. The reaction was terminated by filtering the cell suspension through GF/C membranes that were pretreated with 15 ml of 0.05% polyethyleneimine (PEI).” left out

wild-type S. cerevisiae = tested on: wild-type S. cerevisiae
Protocol: as §1

[7] = cited from earlier work

In the case of `C[N+](C)(C)CCCCCCCCCC[N+](C)(C)C` [DMA, decamethonium], the IC50 (P. falciparum [1]) is given as 1 µM.

In the case of `CCCCCCCCCC[N+](C)(C)C` [DTMA, decyltrimethylammonium], the IC50 (P. falciparum [1]) is given as 0.7 µM.

For `CCCCCCCCCCCC[N+](C)(C)C.[Br-]` [E6], the “Inhibition of S. cerevisiae growth (in words)” value (“Inhibition … (in words)” below) (S. cerevisiae) was “not an effective drug”, the “IC50, growth of S. cerevisiae” value (S. cerevisiae; wild-type W303 and BY4741, 10^5 cells/ml, YPD, 30° C., 24 h) was “high μM range” and the IC50 [2] was 2.15 µM.

With `CCCCCCCCCCCCCCCCCC[N+](C)(C)C.[Cl-]` [E9] the IC50 (C. albicans strain BWP17) was about 1 µM, the “Inhibition … (in words)” value (S. cerevisiae) was “inhibited” and the IC50 (S. cerevisiae; wild-type W303 and BY4741, 10^5 cells/ml, YPD, 30° C., 24 h, read-out: IC50, growth of S. cerevisiae) was 0.25 to 0.5 µM. It also gave an IC50 [2] of 0.11 µM.

With `CCCCCCCCCCCC[N+](CCC)(CCC)CCC.[Br-]` [E13] the “Inhibition … (in words)” value (S. cerevisiae) was “no improvement” and the IC50 [2] was 0.35 µM.

In the case of `CCCCCCCCCCCC[N+]1(C)CCCC1.[Br-]` [E24], the IC50 [2] is reported as 0.7 µM.

With `CCCCCCCCCCCC[N+](C)(C)CCO` [F4] the IC50 [2] was 4.1 µM.

With `C[N+](C)(CCO)CCCCCCCCCCCCCCCC[N+](C)(C)CCO.[Br-].[Br-]` [H5] the IC50 (C. albicans strain BWP17) was about 5 µM and the “Inhibition … (in words)” value (S. cerevisiae) was “better efficacy”.

In the case of `C[N+]1(C)CCOC(O)(c2ccc(-c3ccc(C4(O)C[N+](C)(C)CCO4)cc3)cc2)C1` (centres unmarked) [HC3, hemicholinium 3], the IC50 (P. falciparum [1]) is listed as 4 µM.

In the case of `N=C(N)CCCCCCCCCCCCC(=N)N` [M34], the IC50 [2] is reported as 3.57 µM.

In the case of `CCc1sc[n+](CCCCCCCCCCCC[n+]2csc(CC)c2C)c1C.[I-].[I-]` [T16, 1, 12-dodecanemethylene bis[4-methyl-5-ethylthiazolium]diiodide], the IC50 (P. falciparum [3]) is given as about 0.016 µM, the “cellular accumulation ratio (CAR)” value [4] is given as about 500 and the “inhibition of choline transport” value [5] is given as 26%. It also gave an IC50 (S. cerevisiae; wild-type strain BY4741, 1×10^4 cells/ml, liquid medium, 30° C., 16 h, read-out: IC50, inhibition of yeast growth) of about 4 µM, a Km [6] of 7.45 ± 1.98 µM and a Vmax of transport [6] of 0.76±0.21 pmol/min/10^7 cells. The “cellular accumulation ratio (CAR) in yeast” value (wild-type S. cerevisiae) was “less than 7”, the Km (wild-type S. cerevisiae; read-out: apparent Km of transport, wild-type, 4 min, 30° C., Lineweaver-Burk) was 5.05 ± 0.26 µM and the “time during which uptake was linear” value (wild-type S. cerevisiae; wild-type, 30° C., 25 nM) was 12 min. The “maximum velocity Vmax of transport” value (wild-type S. cerevisiae; wild-type, 4 min, 30° C.) was 0.98±0.48 pmol/min×10^7 cells.

In the case of Amphotericin B, the half-life ([7]; IV infusion) is listed as “about 2 weeks” and the “renal impairment, share of patients” value ([7]; patients) is listed as 80%.
